Broadly, the EC50 is the midpoint of the concentration-response curve.

A value given as a limit tells only on which side of the number the result lay.

Experimental findings from US7732468B2, “3-aryl-6-aryl-[ 1,2,4]triazolo[3,4-b][1,3,4]thiadiazoles and related compounds as activators of caspases and inducers of apoptosis and the use thereof” (Cytovia, Inc., priority 2006, dated 2010) are described below.

Type in all cases: cell-based
Test [1] concerns human colon carcinoma cell line HCT116. Put plainly: Caspase cascade activation in HCT116 cells. The note with it: HCT-116, 48 h incubation, read-out: caspase potency EC50 HCT116. As to the method: (§1) Human breast cancer cell lines T-47D, human hepatocellular carcinoma cell line SNU398, human colon carcinoma cell line HCT116, human cancer cell line H11299, human Burkitt's lymphoma cell line Namalwa, human lymphoma cell line Raji, and human B cell lymphoblastoid cell line Ramos were grown according to media component mixtures designated by American Type Culture Collection+10% FCS (Invitrogen Corporation), in a 5% CO2-95% humidity incubator at 37° C. T-47D and H1299 cells were maintained at a cell density between 50 and 80% confluency at a cell density of 0.1 to 0.6×10^6 cells/mL. Cells were harvested at 600×g and resuspended at 0.65×10^6 cells/mL into appropriate media+10% FCS. An aliquot of 22.5 μL of cells was added to a well of a 384-well microtiter plate containing 2.5 μL of a 10% DMSO in RPMI-1640 media solution containing 0.16 to 100 μM of 6-(3,4-dimethoxyphenyl)-3-(2-methoxyphenyl)-[1,2,4]triazolo[3,4-b][1,3,4]thiadiazole or other test compound (0.016 to 10 μM final). An aliquot of 22.5 μL of cells was added to a well of a 384-well microtiter plate containing 2.5 μL of a 10% DMSO in RPMI-1640 media solution without test compound as the control sample. The samples were mixed by agitation and then incubated at 37° C. for 48 h in a 5% CO2-95% humidity incubator. After incubation, the samples were removed from the incubator and 25 μL of a solution containing 14 μM of N-(Ac-DEVD)-N′-ethoxycarbonyl-R110 (SEQ ID No.:1) fluorogenic substrate (Cytovia, Inc.; WO99/18856), 20% sucrose (Sigma), 20 mM DTT (Sigma), 200 mM NaCl (Sigma), 40 mM Na PIPES buffer pH 7.2 (Sigma), and 500 μg/mL lysolecithin (Calbiochem) was added. The samples were mixed by agitation and incubated at room temperature. Using a fluorescent plate reader (Model SPECTRAfluor Plus, Tecan), an initial reading (T=0) was made approximately 1-2 min after addition of the substrate solution, employing excitation at 485 nm and emission at 530 nm, to determine the background fluorescence of the control sample. After the 3 h incubation, the samples were read for fluorescence as above (T=3 h).
(§2) The Relative Fluorescence Unit values (RFU) were used to calculate the sample readings as follows: RFU(T=3h)−Control RFU(T=0)=Net RFU(T=3h)
(§3) The activity of caspase cascade activation was determined by the ratio of the net RFU value for 6-(3,4-dimethoxyphenyl)-3-(2-methoxyphenyl)-[1,2,4]triazolo[3,4-b][1,3,4]thiadiazole (Example I) or other test compound to that of control samples. The EC50 (nM) was determined by a sigmoidal dose-response calculation (Prism 3.0, GraphPad Software Inc.).

In test [2] the test system is human Burkitt's lymphoma cell line Namalwa. Put plainly: Caspase cascade activation in Namalwa cells. The following applies: Burkitts lymphoma cell, 48 h incubation, read-out: caspase potency EC50 Namalwa. As to the method:
as §1, §2, §3

The test system of test [3] is human B cell lymphoblastoid cell line Ramos. Put plainly: Caspase cascade activation in Ramos cells. The following applies: 48 h incubation, read-out: caspase potency EC50 RAMOS. As to the method: as §1, §2, §3
In test [4] the test system is human lymphoma cell line Raji. Put plainly: Caspase cascade activation in Raji cells. The following applies: RAJ1 cells, 48 h incubation, read-out: caspase potency EC50 RAJ1. As for the experimental part:
as §1, §2, §3

The subject of test [5] is human hepatocellular carcinoma cell line SNU398. Put plainly: Caspase cascade activation in SNU398 cells. The following applies: SNU-398, 48 h incubation, read-out: caspase potency EC50 SNU398. As for the experimental part:
as §1, §2, §3

Test [6] relates to Human breast cancer cell lines T-47D. Put plainly: Caspase cascade activation (Ac-DEVD-R110 fluorogenic substrate) in T-47D cells. The following applies: T47D cells, 48 h incubation, read-out: caspase potency EC50 T47D. As for the experimental part:
as §1, §2, §3

As to `CCc1nn(C)c(-c2nnc3sc(-c4ccc(OC)cc4)nn23)c1Cl` [B, 3-(4-Chloro-3-ethyl-1-methyl-1H-pyrazol-5-yl)-6-(4-methoxyphenyl)-[1,2,4]triazolo[3,4-b][1,3,4]thiadiazole], the EC50 in test [1] is over 10000 nM; in test [2] it was 5630 nM; in test [3] it was 5300 nM; in test [4], 5400 nM; in test [5], over 10000 nM; in test [6] it was over 10000 nM.
In the case of `COc1cc(-c2nnc3sc(-c4ccc5nc[nH]c5c4)nn23)cc(OC)c1OC` [Entry 3, 6-(1H-Benzo[d]imidazol-6-yl)-3-(3,4,5-trimethoxyphenyl)-[1,2,4]triazolo[3,4-b][1,3,4]thiadiazole], the EC50 in test [1], in test [2], in test [5] and in test [6] was over 10000 nM in each case.
In the case of `CCN(CC)c1ccc(-c2nn3c(-c4cccnc4)nnc3s2)cc1` [D, 6-(4-Diethylaminophenyl)-3-(pyridin-3-yl)-[1,2,4]triazolo[3,4-b][1,3,4]thiadiazole], the results for the EC50 in test [2], in test [3] and in test [4] were 2480 nM, 1100 nM and 5070 nM, respectively.
As for `COc1ccccc1-c1nnc2sc(-c3ccc(OC)c([N+](=O)[O-])c3)nn12` [Entry 6, 6-(4-Methoxy-3-nitrophenyl)-3-(2-methoxyphenyl)-[1,2,4]triazolo[3,4-b][1,3,4]thiadiazole], the concentration giving a half-maximal response (EC50) in test [1], in test [2], in test [5] and in test [6] was over 10000 nM each time.
For the compound `COc1ccc(-c2nnc3sc(-c4ccc(N(C)C)cc4)nn23)cc1OC` [Entry C1, 3-(3,4-Dimethoxyphenyl)-6-(4-dimethylaminophenyl)-[1,2,4]triazolo[3,4-b][1,3,4]thiadiazole], the 50% effective concentration (EC50) was 5300 nM in test [2], 5180 nM in test [3] and over 10000 nM in test [4].
Turning to `CN(C)c1ccc(-c2nn3c(-c4ccncc4)nnc3s2)cc1` [Entry H1, 6-(4-Dimethylaminophenyl)-3-(pyridine-4-yl)-[1,2,4]triazolo[3,4-b][1,3,4]thiadiazole], the half-maximal effective concentration (EC50) in test [2] is 2660 nM; in test [3] it was 3920 nM; in test [4], 4940 nM.
For the compound `COc1ccccc1-c1nnc2sc(-c3ccc4cc[nH]c4c3)nn12` [Entry 13, 6-(1H-indol-6-yl)-3-(2-methoxyphenyl)-[1,2,4]triazolo[3,4-b][1,3,4]thiadiazole], the concentration giving a half-maximal response (EC50) in test [1] was 663 nM; in test [2] it was 155 nM; in test [5], 146 nM; in test [6] it was 967 nM.
As to `COc1cc(-c2nnc3sc(-c4ccc(C)c([N+](=O)[O-])c4)nn23)cc(OC)c1OC` [Entry 1, 6-(4-Methyl-3-nitrophenyl)-3-(3,4,5-trimethoxyphenyl)-[1,2,4]triazolo[3,4-b][1,3,4]thiadiazole], the EC50 in test [1], in test [2], in test [5] and in test [6] was over 10000 nM throughout.
`COc1ccc(-c2nn3c(-c4n[nH]c5c4CCC5)nnc3s2)cc1OC` [Entry L1, 6-(3,4-Dimethoxyphenyl)-3-(1,4,5,6-tetrahydrocyclopenta[c]pyrazol-3-yl)-[1,2,4]triazolo[3,4-b][1,3,4]thiadiazole]: the EC50 in test [1] came to 2760 nM; in test [2], 1310 nM; in test [3], 1740 nM; in test [4], 2690 nM; in test [6], 2430 nM.
`COc1ccccc1-c1nnc2sc(-c3ccc(N4CCOCC4)cc3)nn12` [Entry 9, 3-(2-Methoxyphenyl)-6-(4-morpholinophenyl)-[1,2,4]triazolo[3,4-b][1,3,4]thiadiazole]: the EC50 is 2640 nM in test [1], 2380 nM in test [2], 2320 nM in test [5] and 1260 nM in test [6].
Take `COc1ccccc1-c1nnc2sc(-c3cccnc3)nn12` [Entry 11, 3-(2-Methoxyphenyl)-6-(pyridin-3-yl)-[1,2,4]triazolo[3,4-b][1,3,4]thiadiazole]: the 50% effective concentration (EC50) in test [1], in test [2], in test [5] and in test [6] was over 10000 nM throughout.
Turning to `COc1ccccc1-c1nnc2sc(-c3ccc(C)c([N+](=O)[O-])c3)nn12` [Entry 4, 3-(2-Methoxyphenyl)-6-(4-methyl-3-nitrophenyl)-[1,2,4]triazolo[3,4-b][1,3,4]thiadiazole], the half-maximal effective concentration (EC50) in test [1], in test [2], in test [5] and in test [6] was over 10000 nM throughout.
For the compound `COc1ccccc1-c1nnc2sc(-c3ccc4[nH]ncc4c3)nn12` [Entry 12, 6-(1H-indazol-5-yl)-3-(2-methoxyphenyl)-[1,2,4]triazolo[3,4-b][1,3,4]thiadiazole], the EC50 in test [1] is 1170 nM; in test [2], 649 nM; in test [5], 571 nM; in test [6] it was 1180 nM.
For `CCN(CC)c1ccc(-c2nn3c(-c4ccncc4)nnc3s2)cc1` [J, 6-(4-Diethylaminophenyl)-3-(pyridin-4-yl)-[1,2,4]triazolo[3,4-b][1,3,4]thiadiazole], the figures for the EC50 in test [2], in test [3] and in test [4] were 598 nM, 524 nM and 1060 nM, respectively.
Regarding `CN(C)c1ccc(-c2nnc3sc(-c4cccc(N(C)C)c4)nn23)cc1` [Entry J1, 3-(4-Dimethylaminophenyl)-6-(3-dimethylaminophenyl)-[1,2,4]triazolo[3,4-b][1,3,4]thiadiazole], the 50% effective concentration (EC50) in test [2] was 5530 nM; in test [3], 5330 nM; in test [4] it was over 10000 nM.
Consider `COc1ccccc1-c1nnc2sc(-c3ccc([N+](=O)[O-])c(OC)c3)nn12` [Entry 10, 6-(3-Methoxy-4-nitrophenyl)-3-(2-methoxyphenyl)-[1,2,4]triazolo[3,4-b][1,3,4]thiadiazole], for which the concentration giving a half-maximal response (EC50) in test [1], in test [2], in test [5] and in test [6] was over 10000 nM throughout.
`COc1cc(-c2nnc3sc(-c4ccc(N5CCOCC5)cc4)nn23)cc(OC)c1OC` [Entry 8, 6-(4-Morpholinophenyl)-3-(3,4,5-trimethoxyphenyl)-[1,2,4]triazolo[3,4-b][1,3,4]thiadiazole]: the concentration giving a half-maximal response (EC50) in test [1], in test [2], in test [5] and in test [6] was over 10000 nM each time.
Turning to `CCN(CC)c1ccc(-c2nn3c(-c4cccc(C)c4)nnc3s2)cc1` [G, 6-(4-Diethylaminophenyl)-3-m-tolyl-[1,2,4]triazolo[3,4-b][1,3,4]thiadiazole], the EC50 in test [2] came out at 2350 nM; in test [3], 2240 nM; in test [4], 2930 nM.
`COc1ccc(-c2nn3c(-c4ccccc4Cl)nnc3s2)cc1` [Z, 3-(2-Chlorophenyl)-6-(4-methoxyphenyl)-[1,2,4]triazolo[3,4-b][1,3,4]thiadiazole]: the figures for the EC50 in test [2], in test [3] and in test [4] were 963 nM, 1020 nM and 1560 nM, respectively.
In the case of `COc1cc(-c2nnc3sc(-c4ccc(C)c(N)c4)nn23)cc(OC)c1OC` [Entry 2, 6-(3-Amino-4-methylphenyl)-3-(3,4,5-trimethoxyphenyl)-[1,2,4]triazolo[3,4-b][1,3,4]thiadiazole], the EC50 in test [1] is 1320 nM; in test [2], 626 nM; in test [5] it was 645 nM; in test [6], 1620 nM.
